According to paper PMC6364417, “Kinase inhibitor library screening identifies synergistic drug combinations effective in sensitive and resistant melanoma cells” (Journal of Experimental & Clinical Cancer Research : CR, 2019):

Experiments:
Test in all cases: Kinase inhibitor library screening, PrestoBlue cell viability, 1 or 10 μM, 72 h
[1] = system: IGR37 cells (parental); details: for viability at 1 µM / viability at 10 µM: Homo sapiens, IGR-37, 72 h; for viability at 1 µM: read-out: cell viability, IGR37 Parental, 1μΜ; for viability at 10 µM: read-out: cell viability, IGR37 Parental, 10μΜ
[2] = system: A375 cells (parental); details: for viability at 1 µM / viability at 10 µM: Homo sapiens, A-375, 72 h; for viability at 1 µM: read-out: cell viability, A375 Parental, 1μΜ; for viability at 10 µM: read-out: cell viability, A375 Parental, 10μΜ
[3] = system: A375-GP cells (Dabrafenib-resistant); details: for viability at 1 µM / viability at 10 µM: Homo sapiens, A-375, 72 h; for viability at 1 µM: read-out: cell viability, A375 GP, 1μΜ; for viability at 10 µM: read-out: cell viability, A375 GP, 10μΜ
[4] = system: 501Mel-GP cells (Dabrafenib-resistant); details: 72 h; for viability at 1 µM / viability at 10 µM: Homo sapiens; for viability at 1 µM: read-out: cell viability, 501Mel GP, 1μΜ; for viability at 10 µM: read-out: cell viability, 501Mel GP, 10μΜ
[5] = system: IGR37-XP cells (Vemurafenib-resistant); details: for viability at 1 µM / viability at 10 µM: Homo sapiens, IGR-37, 72 h; for viability at 1 µM: read-out: cell viability, IGR37 XP, 1μΜ; for viability at 10 µM: read-out: cell viability, IGR37 XP, 10μΜ
[6] = system: A375-XP cells (Vemurafenib-resistant); details: for viability at 1 µM / viability at 10 µM: Homo sapiens, A-375, 72 h; for viability at 1 µM: read-out: cell viability, A375 XP, 1μΜ; for viability at 10 µM: read-out: cell viability, A375 XP, 10μΜ
[7] = system: 501Mel-XP cells (Vemurafenib-resistant); details: 72 h; for viability at 1 µM / viability at 10 µM: Homo sapiens; for viability at 1 µM: read-out: cell viability, 501Mel XP, 1μΜ; for viability at 10 µM: read-out: cell viability, 501Mel XP, 10μΜ
[8] = system: 501Mel cells (parental); details: 72 h; for viability at 1 µM / viability at 10 µM: Homo sapiens; for viability at 1 µM: read-out: cell viability, 501Mel Parental, 1μΜ; for viability at 10 µM: read-out: cell viability, 501Mel Parental, 10μΜ
How it was run: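 Each compound was applied to parental melanoma cells and to derivatives made resistant to Vemurafenib or Dabrafenib. After treatment, viability was read with PrestoBlue on a plate reader and expressed as % of untreated cells, with each line run at least in duplicate.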

[9] = system: IGR37-GP cells (Dabrafenib-resistant); details: for viability at 1 µM / viability at 10 µM: Homo sapiens, IGR-37, 72 h; for viability at 1 µM: read-out: cell viability, IGR37 GP, 1μΜ; for viability at 10 µM: read-out: cell viability, IGR37 GP, 10μΜ

Row | Structure (SMILES) | viability at 1 µM [1] [%] | viability at 10 µM [1] [%] | viability at 1 µM [2] [%] | viability at 10 µM [2] [%] | viability at 1 µM [3] [%] | viability at 10 µM [3] [%] | viability at 1 µM [4] [%] | viability at 10 µM [4] [%] | viability at 1 µM [5] [%] | viability at 10 µM [5] [%] | viability at 1 µM [6] [%] | viability at 10 µM [6] [%] | viability at 1 µM [7] [%] | viability at 10 µM [7] [%] | viability at 1 µM [8] [%] | viability at 10 µM [8] [%] | viability at 1 µM [9] [%] | viability at 10 µM [9] [%] | further results
1 | COc1cc(N2CCC(N3CCN(C)CC3)CC2)ccc1Nc1ncc(Cl)c(Nc2ccccc2S(=O)(=O)C(C)C)n1 [TAE684 (NVP-TAE684)] |  |  |  |  |  |  |  |  |  |  |  |  |  |  |  |  |  |  | cell viability (kinase inhibitor library screening) ([1]; IGR37 Parental, 1μΜ, 72 h): 99.2%; cell viability (kinase inhibitor library screening) ([1]; IGR37 Parental, 10μΜ, 72 h): 4.4%; cell viability (kinase inhibitor library screening) ([2]; A375 Parental, 10μΜ, 72 h): 8.8%; cell viability (kinase inhibitor library screening) ([2]; A375 Parental, 1μΜ, 72 h): 76.3%; cell viability (kinase inhibitor library screening) ([3]; A375 GP, 1μΜ, 72 h): 61.5%; cell viability (kinase inhibitor library screening) ([3]; A375 GP, 10μΜ, 72 h): 8.3%; cell viability (kinase inhibitor library screening) ([4]; 501Mel GP, 1μΜ): 112.8%; cell viability (kinase inhibitor library screening) ([4]; 501Mel GP, 10μΜ): -0.0599%; cell viability (kinase inhibitor library screening) ([5]; IGR37 XP, 1μΜ, 72 h): 67.8%; cell viability (kinase inhibitor library screening) ([5]; IGR37 XP, 10μΜ, 72 h): 1.0%; cell viability (kinase inhibitor library screening) ([6]; A375 XP, 1μΜ, 72 h): 72.8%; cell viability (kinase inhibitor library screening) ([6]; A375 XP, 10μΜ, 72 h): 13.8%; cell viability (kinase inhibitor library screening) ([7]; 501Mel XP, 10μΜ): -0.231%; cell viability (kinase inhibitor library screening) ([8]; 501Mel Parental, 1μΜ): 103.2%; cell viability (kinase inhibitor library screening) ([8]; 501Mel Parental, 10μΜ): 0.331%; cell viability (kinase inhibitor library screening) ([9]; IGR37 GP, 1μΜ, 72 h): 84.1%; cell viability (kinase inhibitor library screening) ([9]; IGR37 GP, 10μΜ, 72 h): 1.7%
2 | CC(C)(O)CC(=O)NCCn1ccc2ncnc(Nc3ccc(Oc4cccc(C(F)(F)F)c4)c(Cl)c3)c21 [TAK-285] | 108 | 99.7 | 102 | 90.5 | 103 | 83.1 | 104 | 87.8 | 87.2 | 48.4 | 108 | 87.7 | 94.8 | 83.2 | 101 | 99 | 90.8 | 86 | 
3 | Cn1c(=O)c(F)c(Nc2ccc(I)cc2F)c2c(=O)n(C[C@@H](O)CO)cnc21 [TAK-733] | 36.5 | 44 | 18.6 | 18.6 | 17.6 | 16.5 | 90.9 | 72.7 | 52.9 | 22 | 10.7 | 2.7 | 80.5 | 58.7 | 54 | 57.9 | 65.6 | 58.6 | 
4 | Nc1nc(N)c2nc(-c3cccc(O)c3)c(-c3cccc(O)c3)nc2n1 [TG100-115] |  |  |  |  |  |  |  |  |  |  |  |  |  |  |  |  |  |  | Cell viability in kinase inhibitor library screening, IGR37 Parental, 1μΜ ([1]; IGR37 Parental, 1μΜ, 72 h, in %): 97.1; Cell viability in kinase inhibitor library screening, IGR37 Parental, 10μΜ ([1]; IGR37 Parental, 10μΜ, 72 h, in %): 98.5; Cell viability in kinase inhibitor library screening, A375 Parental, 10μΜ ([2]; A375 Parental, 10μΜ, 72 h): 88.3; Cell viability in kinase inhibitor library screening, A375 Parental, 1μΜ ([2]; A375 Parental, 1μΜ, 72 h): 100.3; Cell viability in kinase inhibitor library screening, A375 GP, 1μΜ ([3]; A375 GP, 1μΜ, 72 h): 100.0; Cell viability in kinase inhibitor library screening, A375 GP, 10μΜ ([3]; A375 GP, 10μΜ, 72 h): 91.7; Cell viability in kinase inhibitor library screening, 501Mel GP, 1μΜ ([4]; 501Mel GP, 1μΜ, in %): 107.0; Cell viability in kinase inhibitor library screening, 501Mel GP, 10μΜ ([4]; 501Mel GP, 10μΜ, in %): 81.4; Cell viability in kinase inhibitor library screening, IGR37 XP, 10μΜ ([5]; IGR37 XP, 10μΜ, 72 h): 70.9%; Cell viability in kinase inhibitor library screening, A375 XP, 1μΜ ([6]; A375 XP, 1μΜ, 72 h): 103.9; Cell viability in kinase inhibitor library screening, 501Mel XP, 1μΜ ([7]; 501Mel XP, 1μΜ, in %): 97.0; Cell viability in kinase inhibitor library screening, 501Mel XP, 10μΜ ([7]; 501Mel XP, 10μΜ, in %): 81.6; Cell viability in kinase inhibitor library screening, 501Mel Parental, 1μΜ ([8]; 501Mel Parental, 1μΜ, in %): 99.2; Cell viability in kinase inhibitor library screening, 501Mel Parental, 10μΜ ([8]; 501Mel Parental, 10μΜ, in %): 89.6; Cell viability in kinase inhibitor library screening, IGR37 GP, 10μΜ ([9]; IGR37 GP, 10μΜ, 72 h): 89.4%; Cell viability in kinase inhibitor library screening, IGR37 GP, 1μΜ ([9]; IGR37 GP, 1μΜ, 72 h, in %): 96.0
